Several values for one entry are separate records, joined by “and”; a condition that tells them apart may be missing. Identical values can stand only once. Blank lines part the entries; values can stand above or below the molecule they belong to.
Tests used:
cell surface TrkA = molecular target: T1, cell surface TrkA (Homo sapiens, UniProt P04629); experiment: FACScan competition of mAb 5C3 binding on 4-3.6 cells; settings: mAb 1 nM; competitor 40 μM
T1 construct: expressed in transfected cells
Description: (§1) The 4-3.6 cells are B104 cells stably transfected with human trkA cDNA, and express equal levels of p75 and TrkA (TrkA+ p75+). For screening agents that activate or antagonize TrkC receptors, NIH3T3 fibroblasts were stably transfected with human TrkC cDNA. These cells respond to the ligand NT-3. For screening agents that activate or antagonize TrkA receptors, NIH3T3 fibroblasts were stably transfected with human TrkA cDNA. These cells respond to the ligand NGF.
(§2) FACScan binding assays: 4-3.6 cells (2×10^5) in FACScan binding buffer (PBS, 0.5% BSA, and 0.1% NaN3) were immunostained as described (Saragovi et al., 1998). Saturating anti-TrkA mAb 5C3, or anti-p75 mAb MC192, or control non-binding IgGs were added to cells for 1 hour at 4° C., in the presence or absence of D3 as competitor. Excess primary antibody was washed off, and cells were immunostained with fluorescinated goat-anti-mouse IgG secondary antibody. Cells were acquired on a FACScan and mean channel fluorescence of bell-shaped histograms were analyzed using the LYSIS II program.

p75 NGF receptor subunit = molecular target: T2, p75 NGF receptor subunit (Rattus norvegicus, UniProt P07174); experiment: FACScan competition of anti-p75 mAb MC192 binding on 4-3.6 cells
T2 construct: B104 rat neuroblastomas express p75 receptors; endogenous in cells
Description: as §1, §2

TrkA-ECD = molecular target: T3, TrkA-ECD (Homo sapiens, UniProt P04629); experiment: ELISA competition of mAb 5C3 binding to immobilized TrkA-ECD; settings: mAb 5C3 2 nM; competitor 40 μM
T3 construct: pure soluble TrkA extracellular domain (TrkA-ECD) produced in baculovirus; made in house
Protocol: Direct binding studies: were done as described (Saragovi et al., 1998) using 6 ng/well of recombinant baculovirus TrkA-extracellular domain protein (TrkA-ECD) or control bovine serum albumin (BSA, Fraction V, Boehringer Mannheim) immobilized onto 96-well microtest plates. Wells were blocked with binding buffer (BB: PBS with 1% BSA) for 1 hour. Then, 50 ng/well of biotinylated D3 were added as primary reagent in BB for 40 min in the absence or presence of excess non-biotinylated D3 as competitor. Wells were washed 5 times with BB, and horseradish peroxidase (HRP)-coupled avidin (Sigma) was added as secondary reagent for 30 min. Plates were washed in BB, and peroxidase activity was determined colorimetrically using 2,2-azinobis (3-ethylbenzthiazoline sulfonic acid) (ABTS, Sigma). The optical density (OD) was measured at 414 nm in a Microplate reader (Bio-Rad). Assays were repeated at least three times, n=4.
Binding Competition: studies were as described for direct binding assays to TrkA-ECD, except that as primary reagent 50 ng anti-TrkA mAb 5C3/well were added in BB, in the presence or absence of D3 or controls as competitors as described (Saragovi et al., 1998). Wells were washed 5 times with BB, and HRP-coupled goat anti-mouse was added as secondary reagent for 30 min. Plates were washed in BB, and peroxidase activity were determined. Assays were repeated at least three times, n=4.

[1] = test system: embryonic rat DRG primary neuronal cultures; experiment: Cell survival (MTT), primary DRG cultures; format: cell-based; settings: compound 10 μM alone; 8 days;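 for % Protection: 100% equals survival with optimal NGF at 1 nM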
Protocol: Fetal rat DRG primary cultures were established from Sprague Dawley day 17 rat embryos. All ganglia were dissected and dissociated first enzymatically with trypsin and then mechanically. Dissociated cells were cultured (10^5 cells/well) in 96 well plates pre-coated with collagen, and grown for a total of 8 days in Neuro Basal Medium containing N2 supplement (GIBCO, Toronto), antibiotics, and L-glutamine. These DRG cultures are ˜85% TrkA-expressing and are heavily dependent on TrkA signals for survival.
Primary DRG cultures: After a total of 8 days of culture with the indicated test or control ligands, cell survival were studied using the 3(4,5-Dimethylthiazolyl-2)-2,5-diphenyl tetrazolium bromide colorimetric (MTT) assay, and by microscopic observation.
(§3) Cell lines: 5,000 cells/well in protein-free media (PFHM-II, GIBCO, Toronto) containing 0.2% bovine serum albumin (BSA) (Crystalline fraction V, Sigma, St. Louis, Mo.) were seeded in 96 well plates (Falcon, Mississauga, Ontario). The cultures were untreated, or treated with the indicated test or control ligands. Cell viability was quantitated using the MTT assay after 56-72 hours of culture. […] The OD of untreated cells were subtracted. The higher optical density of untreated primary cultures is likely due to cellular heterogeneity and to endogenous production of limiting amounts of growth factors.

4-3.6 cells (p75+TrkA+) = experiment: Cell survival (MTT), 4-3.6 cells; format: cell-based, rat; settings: 72 hours;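 for % Protection: 100% equals survival with optimal NGF at 1 nM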
Description: as §1, §3

[2] = molecular target: T4, HEK 293 cells expressing TrkB/TrkA IgG-C2 chimeric receptor (Homo sapiens, UniProt P04629+Q16620); experiment: Cell survival (MTT), HEK 293-TrkB/TrkA IgG-C2 chimera; format: cell-based; settings: HEK 293-TrkB/TrkA chimera, 72 hours;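 for % Protection: 100% equals survival with optimal NGF at 1 nM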
T4 construct: The IgG-C2 domain of human TrkA was generated using unique restriction sites; expressed in transfected cells
Description: The IgG-C2 domain of human TrkA was generated using unique restriction sites in the primers to allow exchange with the corresponding rat TrkB domain. The chimeric receptors were constructed by subcloning the human TrkA IgG-C2 domain into the corresponding restriction sites of the rat trkB cDNA reported in a previous work (Perez et al., 1995). Chimeric constructs were confirmed by sequencing, and were cloned into the pCDNA3 expression vector that contains a selection gene providing resistance to neomycin (G418, GIBCO). HEK293 cells were transfected using the lipofectamine plus method (GIBCO), selected with neomycin (0.5 mg/ml) and at least 3 independent subclones were obtained by limiting dilution techniques (293-TrkB/A-IgC2 chimera).
as §3, with “subtracted.” for “subtracted. The higher optical density of untreated primary cultures is likely due to cellular heterogeneity and to endogenous production of limiting amounts of growth factors.”

septal neuronal cultures = experiment: ChAT activity in septal neuronal cultures; format: cell-based, rat; settings: compound 20 μM alone; day 8
Protocol: Cell cultures were established from the septal area of 17-day-old rat embryos. In brief, tissue was incubated in PBS containing trypsin and DNase. Tissue pieces then were mechanically dissociated. After centrifugation, the pellet was suspended in Leibovitz's L-15 medium. Cells were plated onto 96-multiwell NUNC dishes (10^5 cells/well) coated with poly-D-lysine (5 μg/ml). Pure cultures of septal neurons were treated 1 day after plating. Drugs, prepared in medium, were added directly to the cells without changing the initial medium. The incubation continued for 8 days, at which time ChAT activity was evaluated.
At day 8 of culture, the medium was aspirated, and ice-cold lysis buffer (10 mM sodium phosphate, pH 7.4/0.1% TritonX-100—Trade-mark) was added. ChAT activity assays were performed directly in the wells using Fonnum's method (Fonnum, 1975).

[3] = molecular target: p75 NGF receptor on B104 rat neuroblastoma cells and 4-3.6 cells (rat) (UniProt P07174); experiment: FACScan, 4-3.6 cells, mAb 1 nM, no competitor
[4] = molecular target: T5, NIH3T3 fibroblasts expressing TrkA (Homo sapiens, UniProt P04629); experiment: Cell survival (MTT), NIH-TrkA; format: cell-based; settings: 72 hours;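 note: 100% equals survival with optimal NGF at 1 nM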
T5 construct: expressed in transfected cells; host or cells: NIH3T3 fibroblasts
Description: as §1, with “These cells respond to the ligand NT-3.” left out, “cDNA.” for “cDNA. These cells respond to the ligand NGF.”
as §3, with “subtracted.” for “subtracted. The higher optical density of untreated primary cultures is likely due to cellular heterogeneity and to endogenous production of limiting amounts of growth factors.”

[5] = test system: wild type NIH3T3 fibroblasts; experiment: Cell survival (MTT), NIH wt; format: cell-based; settings: agent 10 μM alone; 72 hours
Description: as §1, §3

[6] = molecular target: human TrkA expressed on transfected cells (4-3.6 cells; NIH3T3-TrkA cells) (human) (UniProt P04629); experiment: FACScan, 4-3.6 cells (p75+ TrkA+), avidin-FITC
Sequence of human TrkA expressed on transfected cells (4-3.6 cells; NIH3T3-TrkA cells) (human) (P04629 33-796): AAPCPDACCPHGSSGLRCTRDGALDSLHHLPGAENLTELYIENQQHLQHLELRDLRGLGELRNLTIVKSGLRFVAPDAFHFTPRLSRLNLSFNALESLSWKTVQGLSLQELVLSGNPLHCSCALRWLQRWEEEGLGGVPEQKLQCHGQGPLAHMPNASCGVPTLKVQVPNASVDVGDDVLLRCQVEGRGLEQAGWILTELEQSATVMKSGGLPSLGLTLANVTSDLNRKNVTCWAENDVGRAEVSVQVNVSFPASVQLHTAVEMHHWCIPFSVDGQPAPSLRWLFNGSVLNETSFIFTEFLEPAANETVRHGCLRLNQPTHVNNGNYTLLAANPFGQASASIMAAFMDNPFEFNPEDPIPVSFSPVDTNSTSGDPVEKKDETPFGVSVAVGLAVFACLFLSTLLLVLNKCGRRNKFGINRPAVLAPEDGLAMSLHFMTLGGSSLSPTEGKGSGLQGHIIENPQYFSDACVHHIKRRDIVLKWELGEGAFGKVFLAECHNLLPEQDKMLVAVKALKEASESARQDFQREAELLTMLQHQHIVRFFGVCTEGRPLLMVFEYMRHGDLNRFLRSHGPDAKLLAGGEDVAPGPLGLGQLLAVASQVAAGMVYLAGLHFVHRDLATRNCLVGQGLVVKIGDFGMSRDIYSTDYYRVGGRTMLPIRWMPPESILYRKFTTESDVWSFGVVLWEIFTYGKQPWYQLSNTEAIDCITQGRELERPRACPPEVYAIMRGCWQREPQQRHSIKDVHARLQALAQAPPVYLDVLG

T4 sequence (P04629 299-365 limits assumed, change not shown, one chain of several): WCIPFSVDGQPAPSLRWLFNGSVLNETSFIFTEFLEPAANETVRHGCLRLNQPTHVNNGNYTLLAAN
T5 sequence (P04629 33-796): as the sequence (P04629 33-796) above
T2 sequence (P07174 30-425): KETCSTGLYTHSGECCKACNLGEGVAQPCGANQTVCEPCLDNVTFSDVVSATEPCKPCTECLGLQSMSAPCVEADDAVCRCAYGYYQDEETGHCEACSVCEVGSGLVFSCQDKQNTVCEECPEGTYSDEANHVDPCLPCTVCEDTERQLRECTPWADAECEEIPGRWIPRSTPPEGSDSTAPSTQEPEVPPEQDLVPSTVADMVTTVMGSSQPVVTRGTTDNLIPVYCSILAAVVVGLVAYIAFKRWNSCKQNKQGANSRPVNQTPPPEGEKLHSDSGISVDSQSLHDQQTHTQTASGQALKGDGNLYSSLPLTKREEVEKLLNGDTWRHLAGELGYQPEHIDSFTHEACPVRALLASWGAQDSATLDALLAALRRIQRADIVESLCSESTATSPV
Sequence of p75 NGF receptor on B104 rat neuroblastoma cells and 4-3.6 cells (rat) (P07174 30-425): as above
T3 sequence (P04629 33-423 limits assumed): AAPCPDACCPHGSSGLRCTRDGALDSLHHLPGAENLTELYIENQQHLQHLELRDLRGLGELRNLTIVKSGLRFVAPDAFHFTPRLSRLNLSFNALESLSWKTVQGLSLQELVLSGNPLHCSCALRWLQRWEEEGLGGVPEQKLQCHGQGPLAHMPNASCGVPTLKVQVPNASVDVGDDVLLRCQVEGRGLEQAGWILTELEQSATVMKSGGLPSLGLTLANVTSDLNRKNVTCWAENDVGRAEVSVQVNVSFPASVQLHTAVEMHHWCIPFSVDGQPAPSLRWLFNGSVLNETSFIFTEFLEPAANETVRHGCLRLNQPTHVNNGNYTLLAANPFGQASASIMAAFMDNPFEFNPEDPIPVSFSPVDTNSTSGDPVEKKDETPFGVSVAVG
T1 sequence (P04629 33-796): as the sequence (P04629 33-796) above

% Maximal binding [3]: 100%
Molecule: anti-p75 monoclonal antibody MC192

MCF [6]: 10 MCF
Molecule: control-biotin (an inactive biotinylated peptide)

Continued, molecule first:

Molecule: NCCCC[C@@H]1NC(=O)[C@H](CCC(=O)O)NC(=O)c2cc([N+](=O)[O-])ccc2SCC(C(N)=O)NC1=O (stereo partly shown) [C59, EKCys]
% Maximal binding of mAb 5C3 (cell surface TrkA): 97 ± 6% | inhibition of mAb MC192 binding (p75 NGF receptor subunit): did not inhibit | % Binding of mAb 5C3 to TrkA-ECD (TrkA-ECD): 96 ± 9% | % Protection [1]: 0 ± 1% | Optical Density [1]: 271 ± 8 | % Protection (4-3.6 cells (p75+TrkA+); compound 10 μM + 10 pM NGF): 41 ± 4% | Optical Density (4-3.6 cells (p75+TrkA+); compound 10 μM + 10 pM NGF): 209 ± 17 | % Protection (4-3.6 cells (p75+TrkA+); compound 10 μM alone): 2 ± 1% | Optical Density (4-3.6 cells (p75+TrkA+); compound 10 μM alone): 76 ± 4 | % Protection ([2]; compound 10 μM + 10 pM NGF): 21 ± 6% | Optical Density ([2]; compound 10 μM + 10 pM NGF): 90 ± 9 | % Protection ([2]; compound 10 μM alone): −1 ± 2% | Optical Density ([2]; compound 10 μM alone): 30 ± 7 | ChAT Activity (septal neuronal cultures): 0.30 ± 0.05 pmol Ach/min/well | Fold Increase (ChAT activity) (septal neuronal cultures): 1

Molecule: CC(O)[C@@H]1NC(=O)c2cc([N+](=O)[O-])cc(I)c2NCCC(C(N)=O)NC(=O)CNC1=O (stereo partly shown) [P42]
NIH-TrkA % Protection ([4]; agent 10 μM + 10 pM NGF): 9 ± 4% | NIH-TrkA % Protection ([4]; agent 10 μM + 1 nM NGF): 68% and 68 ± 5% | NIH-TrkA % Protection ([4]; agent 10 μM alone): 5 ± 2% | NIH wt % Protection [5]: 0 ± 3%

Molecule: NC(=O)C[C@@H]1NC(=O)[C@H](CCC(=O)O)NC(=O)c2cc([N+](=O)[O-])cc(I)c2NCCC(C(N)=O)NC1=O (stereo partly shown) [P43]
NIH-TrkA % Protection ([4]; agent 10 μM + 10 pM NGF): 12 ± 3% | NIH-TrkA % Protection ([4]; agent 10 μM + 1 nM NGF): 55% and 55 ± 7% | NIH-TrkA % Protection ([4]; agent 10 μM alone): 4 ± 3% | NIH wt % Protection [5]: 2 ± 4%

— US6881719B2, “β-turn peptidomimetic cyclic compounds” (McGill University, priority 2000, dated 2005)
